The target of one assay is His6Hh-C protein (Drosophila melanogaster, UniProt Q02936, DEL89-254). Nature of the assay: In vitro autocleavage reaction of bacterially expressed His6Hh-C protein (DTT / lipid stimulation). Particulars: lipid added with 1 mM DTT (cholesterol 0.35 mM).
Assay [1] can be described thus: Heparin agarose binding of in vitro translated Hh protein species. On the set-up: species or system Drosophila. Particulars: wash with 0.1% Triton X-100 and 150 mM NaCl. The procedure:
In vitro translations were performed with the use of the TNT coupled transcription-translation system (Promega). ^35S methionine (DuPont NEN) was used for detection by autoradiography. […] Samples were incubated at 4° C. for four hours with gentle rocking. After pelleting the beads, supernatants in some samples were analyzed (lanes 2 and 4). The beads were then washed 5 times with chilled HBB and samples (lanes 3 and 5) were subsequently eluted at 80° C. for 10 minutes in SDS PAGE loading buffer (F. M. Ausubel et al., supra).
One possible explanation for this differential behavior might be association of the N fragment with extracellular matrix proteins on the surfaces of the S2 cells. Accordingly, the relative affinity of these two proteins for heparin agarose was examined, since heparin binding is a common property of proteins that associate with the extracellular matrix. Given the obvious difficulty in obtaining soluble N from cultured cells, in vitro translation in the presence of microsomes was used to generate soluble, labelled N and C. […] Furthermore, N but not C was retained upon the heparin agarose beads upon extensive washing with a solution that contains 0.1% Triton X-100 and 150 mM NaCl; in contrast, neither fragment was retained by unmodified agarose. […]

Entries after “also recorded” stand apart in the source; their conditions may differ.

His6Hh-C protein, sequence (Q02936 other isoform, or with tags, fused parts or gaps DEL89-254): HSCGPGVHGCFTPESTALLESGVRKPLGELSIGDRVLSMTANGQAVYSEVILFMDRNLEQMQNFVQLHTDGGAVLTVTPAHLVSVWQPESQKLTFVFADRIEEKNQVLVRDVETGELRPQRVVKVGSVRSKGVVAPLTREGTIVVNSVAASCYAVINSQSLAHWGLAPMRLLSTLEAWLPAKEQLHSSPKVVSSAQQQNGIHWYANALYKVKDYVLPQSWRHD

For `CC(C)CCC[C@@H](C)[C@H]1CC[C@H]2[C@@H]3CC=C4C[C@@H](O)CC[C@]4(C)[C@H]3CC[C@]12C` [cholesterol], the “Stimulation of His6Hh-C autocleavage in vitro” value at His6Hh-C protein is given as “stimulates His2Hh-C autocleavage; also recorded: displayed stimulatory activity similar to that observed with lipids extracted from spot B”.

B1: C-terminal fragment: Drosophila hh 25 kD C-terminal fragment (protein)
chain: CFTPESTALLESGVRKPLGELSIGDRVLSMTANGQAVYSEVILFMDRNLEQMQNFVQLHTDGGAVLTVTPAHLVSVWQPESQKLTFVFADRIEEKNQVLVRDVETGELRPQRVVKVGSVRSKGVVAPLTREGTIVVNSVAASCYAVINSQSLAHWGLAPMRLLSTLEAWLPAKEQLHSSPKVVSSAQQQNGIHWYANALYKVKDYVLPQSWRHD
For the molecule B1, the “Binding to heparin agarose” value in assay [1] is recorded as “not bound effectively by heparin agarose”.

The values are drawn from patent US8362216B2, “Method of detection using antibodies that specifically bind hedgehog-derived polypeptides” (The Johns Hopkins University School of Medicine, priority 1994, dated 2013).
